From publication PMC6796924 (ACS Omega, 2019)
Where “and” joins values, the source holds several entries; their conditions need not be identical. Identical values can stand only once.

Assays:
[1] = In vitro BBB permeability, BBB Kit; type: in vitro ADME; conditions: Wistar, rat
[2] = pH 6.8; cited from earlier work
[3] = PK study after oral administration; type: in vivo, mice
[4] = PK study after intranasal administration; type: in vivo, mice; conditions: for concentration at 5 min / concentration at 15 min / concentration at 30 min / concentration at 45 min: other: intranasal, drug concentration in plasma; for Tmax at 7 days / Cmax at 7 days: 32.4 ug; for AUC(0-t): AUC0–t; for half-life: T1/2, plasma
[5] = Solubility studies of K-604 in different vehicles; type: physicochemical
[6] = female, ICR, mouse, cerebellum, po, 6 mg/kg
[7] = female, ICR, mouse, cerebrum, po, 6 mg/kg
[8] = female, ICR, mouse, plasma, po, 6 mg/kg
[9] = single oral 6 mg/kg (166 μg/mouse), 0.01 N HCl solution, mice
[10] = 0.01 N HCl solution, 32.4 μg/mouse intranasal vs oral 166 μg/mouse, cerebrum
[11] = CA solution, 108 μg/mouse intranasal vs oral 166 μg/mouse, cerebrum
[12] = GA solution, 108 μg/mouse intranasal vs oral 166 μg/mouse, cerebrum
[13] = HA solution, 108 μg/mouse intranasal vs oral 166 μg/mouse, cerebrum
[14] = female, Crl:CDI (ICR), mouse, plasma, 32.4 μg, repeated intranasal, 0.01 N HCl solution, 10 μL, mice
[15] = female, Crl:CDI (ICR), mouse, plasma, 162 μg, repeated (7 days) intranasal, 0.01 N HCl solution, 50 μL, mice
[16] = female, ICR, mouse, plasma, inhaled or intranasal, 108 ug, single intranasal, CA solution, 108 μg/10 μL, mice
[17] = female, ICR, mouse, plasma, inhaled or intranasal, 108 ug, single intranasal, GA solution, 108 μg/10 μL, mice
[18] = female, ICR, mouse, plasma, inhaled or intranasal, 108 ug, single intranasal, HA solution, 108 μg/10 μL, mice
[19] = repeated (7 days) intranasal, 0.01 N HCl solution, 32.4 μg/10 μL, mice
[20] = single intranasal, CA solution, 108 μg/10 μL, mice
[21] = single intranasal, GA solution, 108 μg/10 μL, mice
[22] = single intranasal, HA solution, 108 μg/10 μL, mice

Q: With `NC(=O)N1c2ccccc2C=Cc2ccccc21` [carbamazepine, 5H-dibenzo[b,f]azepine-5-carboxamide, reference compound] as the compound, how does the Papp at 30 min, 1 μM [1] read?
A: The Papp at 30 min, 1 μM was 47.8 ×10⁻⁶ cm/s.

Q: What does the source list for `CSc1cc(C)nc(SC)c1NC(=O)CN1CCN(CCSc2nc3ccccc3[nH]2)CC1.Cl` [K-604, 2-(4-(2-((1H-Benzo[d]imidazol-2-yl)thio)ethyl)piperazin-1-yl)-N-(6-methyl-2,4-bis(methylthio)pyridin-3-yl)acetamide hydrochloride]?
A: Aqueous solubility [2]: 0.05 mg/mL; Cmax [3, 6]: 0.7 ± 0.3 ng/g; Tmax [3, 6]: 15 min; Cmax [3, 7]: 0.8 ± 0.4 ng/g; Tmax [3, 7]: 15 min; AUC(0-t) [3, 8]: 3.29 ng·h/mL; Cmax [3, 8]: 6.2 ± 3.1 ng/mL; Tmax [3, 8]: 15 min; AUC0–t, cerebellum [3, 9]: 5.4 ± 4.9 ng·min/g; AUC0–t, olfactory bulb [3, 9]: 0 ± 0 ng·min/g; AUC0–t, cerebrum ([3]; single oral 6 mg/kg (166 μg/mouse), 0.01 N HCl solution, mice, 6 mg/kg): 8.9 ng·min/g and 9 ng·min/g and 8.9 ± 7.4 ng·min/g; drug concentrations in cerebrum and cerebellum tissue at 60 min ([3]; single oral 6 mg/kg, mice, LLOQ 0.5 ng/g): less than the lower limit of quantification (LLOQ); drug concentrations in the olfactory bulb tissue, all time points ([3]; single oral 6 mg/kg, mice, LLOQ 1 ng/g): less than the LLOQ; intranasal AUC BTE index [4, 10]: 211; intranasal Cmax BTE index [4, 10]: 134; drug concentration in plasma relative to cerebral tissue, fold higher ([4]; 5 to 45 min, repeated intranasal, 0.01 N HCl solution, 50 μL, mice): 6- to 10 fold; intranasal AUC BTE index [4, 11]: 133; intranasal Cmax BTE index [4, 11]: 90; intranasal AUC BTE index [4, 12]: 100; intranasal Cmax BTE index [4, 12]: 61; intranasal AUC BTE index [4, 13]: 137; intranasal Cmax BTE index [4, 13]: 75; Tmax ([4]; female, Crl:CD1 (ICR), mouse, cerebrum, inhaled or intranasal, 108 ug): 15 min; Tmax ([4]; female, Crl:CD1 (ICR), mouse, olfactory bulb, inhaled or intranasal, 108 ug): 15 min; Tmax ([4]; female, Crl:CD1 (ICR), mouse, plasma, inhaled or intranasal, 108 ug): 5 min; Cmax ([4]; female, Crl:CDI (ICR), mouse, cerebrum, inhaled or intranasal, 162 ug, cerebrum, repeated (7 days) intranasal, 0.01 N HCl solution, 162 μg/50 μL, mice): 83 ng/g; Cmax ([4]; female, Crl:CDI (ICR), mouse, cerebrum, inhaled or intranasal, 162 ug, cerebrum, single intranasal, 0.01 N HCl solution, 162 μg/50 μL, mice): 66 ng/g; Cmax ([4]; female, Crl:CDI (ICR), mouse, olfactory bulb, inhaled or intranasal, 162 ug, olfactory bulb, repeated (7 days) intranasal, 0.01 N HCl solution, 162 μg/50 μL, mice): 285 ng/g; Cmax ([4]; female, Crl:CDI (ICR), mouse, olfactory bulb, inhaled or intranasal, 162 ug, olfactory bulb, single intranasal, 0.01 N HCl solution, 162 μg/50 μL, mice): 406 ng/g; AUC ([4]; female, Crl:CDI (ICR), mouse, plasma, inhaled or intranasal, 162 ug): 345 ng·h/mL; Cmax ([4]; female, Crl:CDI (ICR), mouse, plasma, inhaled or intranasal, 162 ug, plasma, repeated (7 days) intranasal, 0.01 N HCl solution, 162 μg/50 μL, mice): 870 ng/mL; Cmax ([4]; female, Crl:CDI (ICR), mouse, plasma, inhaled or intranasal, 162 ug, plasma, single intranasal, 0.01 N HCl solution, 162 μg/50 μL, mice): 574 ng/mL; concentration at 5 min [4, 14]: 142 ng/mL; concentration at 15 min [4, 14]: 90 ng/mL; concentration at 30 min [4, 14]: 33 ng/mL; concentration at 45 min [4, 14]: 10 ng/mL; concentration at 5 min [4, 15]: 870 ng/mL; concentration at 15 min [4, 15]: 449 ng/mL; concentration at 30 min [4, 15]: 250 ng/mL; concentration at 45 min [4, 15]: 77 ng/mL; Tmax at 7 days ([4]; female, ICR, mouse, cerebrum, inhaled or intranasal): 5 min; Cmax at 7 days ([4]; female, ICR, mouse, cerebrum, inhaled or intranasal, repeated (7 days) intranasal, 0.01 N HCl solution, 32.4 μg/10 μL, mice): 21 ± 10 ng/g; Tmax ([4]; female, ICR, mouse, cerebrum, inhaled or intranasal, 108 ug): 5 min; Cmax ([4]; female, ICR, mouse, cerebrum, inhaled or intranasal, 108 ug, single intranasal, CA solution, 108 μg/10 μL, mice): 47 ± 29 ng/g; Cmax ([4]; female, ICR, mouse, cerebrum, inhaled or intranasal, 108 ug, single intranasal, GA solution, 108 μg/10 μL, mice): 32 ± 7 ng/g; Cmax ([4]; female, ICR, mouse, cerebrum, inhaled or intranasal, 108 ug, single intranasal, HA solution, 108 μg/10 μL, mice): 39 ± 11 ng/g; Tmax at 7 days ([4]; female, ICR, mouse, olfactory bulb, inhaled or intranasal): 5 min; Cmax at 7 days ([4]; female, ICR, mouse, olfactory bulb, inhaled or intranasal, repeated (7 days) intranasal, 0.01 N HCl solution, 32.4 μg/10 μL, mice): 156 ± 131 ng/g; Tmax ([4]; female, ICR, mouse, olfactory bulb, inhaled or intranasal, 108 ug): 5 min; Cmax ([4]; female, ICR, mouse, olfactory bulb, inhaled or intranasal, 108 ug, single intranasal, CA solution, 108 μg/10 μL, mice): 351 ± 112 ng/g; Cmax ([4]; female, ICR, mouse, olfactory bulb, inhaled or intranasal, 108 ug, single intranasal, GA solution, 108 μg/10 μL, mice): 160 ± 24 ng/g; Cmax ([4]; female, ICR, mouse, olfactory bulb, inhaled or intranasal, 108 ug, single intranasal, HA solution, 108 μg/10 μL, mice): 274 ± 100 ng/g; Tmax at 7 days ([4]; female, ICR, mouse, plasma, inhaled or intranasal): 5 min; Cmax at 7 days ([4]; female, ICR, mouse, plasma, inhaled or intranasal, repeated (7 days) intranasal, 0.01 N HCl solution, 32.4 μg/10 μL, mice): 146 ± 20 ng/mL; Tmax ([4]; female, ICR, mouse, plasma, inhaled or intranasal, 108 ug): 5 min; AUC(0-t) [4, 16]: 165 ng·h/mL; AUC(0-t) [4, 17]: 121 ng·h/mL; AUC(0-t) [4, 18]: 170 ng·h/mL; Cmax [4, 16]: 283 ± 121 ng/mL; Cmax [4, 17]: 217 ± 51 ng/mL; Cmax [4, 18]: 274 ± 30 ng/mL; half-life [4, 16]: 13.4 ± 1.7 min; half-life [4, 17]: 16.6 ± 2.9 min; half-life [4, 18]: 17.4 ± 2.1 min; AUC0–t, cerebrum [4, 19]: 367 ng·min/g and 367 ± 121 ng·min/g; AUC0–t, olfactory bulb [4, 19]: 2113 ± 1380 ng·min/g; AUC0–t, cerebrum [4, 20]: 772 ng·min/g and 772 ± 223 ng·min/g; AUC0–t, olfactory bulb [4, 20]: 3976 ± 642 ng·min/g; Tmax, plasma [4, 20]: 5 min; AUC0–t, cerebrum [4, 21]: 579 ng·min/g and 579 ± 137 ng·min/g; AUC0–t, olfactory bulb [4, 21]: 3406 ± 2127 ng·min/g; AUC0–t, cerebrum [4, 22]: 791 ng·min/g and 791 ± 160 ng·min/g; AUC0–t, olfactory bulb [4, 22]: 5200 ± 1036 ng·min/g; Papp at 30 min, 1 μM [1]: 21.9 ×10⁻⁶ cm/s; solubility at 24 h ([5]; CA aqueous solution (additive 7.7 mg, 0.04 M), pH 3, thermodynamic from solid): 10.8 mg/mL; solubility at 24 h ([5]; GA aqueous solution (additive 4 mg, 0.04 M), pH 3.6, thermodynamic from solid): 10.8 mg/mL; solubility at 24 h ([5]; HA aqueous solution (additive 5 mg), pH 3.8, thermodynamic from solid): 10.8 mg/mL; solubility ([5]; water, pH 6.8, water): 0.05 mg/mL
